Laboratory results from US20230242830A1 (priority 2020, published 2023).

Columns and labels:
[1] = target: T1, human erythrocyte AChE (hAChE) (Homo sapiens, UniProt P22303); test: acetylcholinesterase inhibition, Ellman spectrometric method; assay type: biochemical
T1 construct: The human erythrocyte AChE (hAChE, aqueous buffer solution); purchased Sigma Aldrich; host or cells: human erythrocytes (natural source)
Experimental: (§1) In the extent that the toxic activity of TCP especially involves its action on cholinesterases, the effect of the compounds used according to the invention, as well as comparative compounds, on two cholinesterases was studied. The concentration values of each compound required to inhibit 50% of the activity of two cholinesterases were measured. The higher the 50% inhibitory concentration (IC50), the less the compound is neurotoxic since it has a weaker action on the cholinesterase.
(§2) The inhibitory capacity of the compounds on the acetylcholinesterase (AChE) and butyrylcholinesterase (BuChE) biological activity was assessed using the spectrometric method of Ellman (Ellman et al., Biochem. Pharm. 1961, 7, 88-95).
(§3) The acetylthiocholine and butyrylthiocholine iodide, and 5,5-dithiobis (2-nitrobenzoic) acid (DTNB) were purchased from Sigma Aldrich (Steinheim, Germany).
(§4) The BuChE freeze-dried from equine serum (eqBuChE, Sigma Aldrich) was dissolved in 0.1 M phosphate buffer (pH 7.4) to obtain enzyme stock solutions with an enzymatic activity of 2.5 units/mL. The human erythrocyte AChE (hAChE, aqueous buffer solution, ≥500 units/mg of protein (BCA), Sigma Aldrich) was diluted in 20 mM HEPES buffer, pH 8, with 0.1% Triton X-100 to obtain enzymatic solution with an enzymatic activity of 0.25 unit/mL.
(§5) In the procedure, 100 µL of 0.3 mM DTNB dissolved in phosphate buffer, pH 7.4, were added in 96-well plates, followed by 50 µL solution of the test compound and 50 µL enzyme (final 0.05 U). After 5 minutes of pre-incubation at 25° C., the reaction was initiated by injecting 50 µL of 0.1 mM acetyl or butyryl thiocholine iodide solution. The acetyl or butyryl thiocholine hydrolysis was followed by the formation of yellow 5-thio 2-nitrobenzoate anion as the product of the reaction of DTNB with the thiocholine released by the enzymatic hydrolysis of the acetyl or butyryl thiocholine, at a wavelength of 412 nm, using a microplate reader (Synergy 2, Biotek, Colmar, France). The compounds to be tested were dissolved to 5×10^-3 M in analytical grade DMSO. Donepezil or tacrine were used as reference standards. The absorption increase rate at 412 nm was determined 4 minutes after the addition of the acetyl or butyryl thiocholine iodide solution. The tests were carried out with a blank containing all the compounds except the acetyl or butyryl thiocholine in order to take into account non-enzymatic reactions.
(§6) The percentage of inhibition due to the presence of the test compounds was calculated using the following expression: […]
(§7) wherein vi is the rate calculated in the presence of the inhibitor, and v0 is the enzymatic activity.
(§8) IC50 values were graphically determined by plotting the percentage of inhibition as a function of the logarithm of six inhibitor concentrations in the test solution using the GraphPadPrism software (version 6.01, GraphPad Software, La Jolla, Calif., USA). All the experiments were carried out in n=3.

[2] = target: T2, BuChE from equine serum (eqBuChE) (Equus caballus, UniProt P81908); test: butyrylcholinesterase inhibition, Ellman spectrometric method; assay type: biochemical
T2 construct: The BuChE freeze-dried from equine serum (eqBuChE, Sigma Aldrich); purchased Sigma Aldrich; host or cells: equine serum (natural source)
T2 sequence (P81908 whole entry): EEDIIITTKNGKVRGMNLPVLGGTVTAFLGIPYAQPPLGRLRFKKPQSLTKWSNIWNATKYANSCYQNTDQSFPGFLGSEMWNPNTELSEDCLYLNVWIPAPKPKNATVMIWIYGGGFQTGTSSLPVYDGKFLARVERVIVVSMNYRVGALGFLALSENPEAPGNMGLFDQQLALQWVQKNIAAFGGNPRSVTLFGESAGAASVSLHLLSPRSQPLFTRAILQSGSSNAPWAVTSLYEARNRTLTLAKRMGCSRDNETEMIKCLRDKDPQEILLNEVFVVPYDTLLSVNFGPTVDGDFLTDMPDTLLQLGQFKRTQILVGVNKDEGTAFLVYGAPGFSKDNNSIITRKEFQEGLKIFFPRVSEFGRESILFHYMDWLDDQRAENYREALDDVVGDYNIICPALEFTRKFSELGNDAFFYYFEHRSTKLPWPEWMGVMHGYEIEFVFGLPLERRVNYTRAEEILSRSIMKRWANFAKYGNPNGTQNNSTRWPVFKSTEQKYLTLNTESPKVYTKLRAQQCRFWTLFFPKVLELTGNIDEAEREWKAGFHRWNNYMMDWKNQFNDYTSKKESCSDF
Experimental: as §1, §2, §3, §4, §5, §6, §7, §8

T1 sequence (P22303 32-617 isoform P22303-2 limits assumed): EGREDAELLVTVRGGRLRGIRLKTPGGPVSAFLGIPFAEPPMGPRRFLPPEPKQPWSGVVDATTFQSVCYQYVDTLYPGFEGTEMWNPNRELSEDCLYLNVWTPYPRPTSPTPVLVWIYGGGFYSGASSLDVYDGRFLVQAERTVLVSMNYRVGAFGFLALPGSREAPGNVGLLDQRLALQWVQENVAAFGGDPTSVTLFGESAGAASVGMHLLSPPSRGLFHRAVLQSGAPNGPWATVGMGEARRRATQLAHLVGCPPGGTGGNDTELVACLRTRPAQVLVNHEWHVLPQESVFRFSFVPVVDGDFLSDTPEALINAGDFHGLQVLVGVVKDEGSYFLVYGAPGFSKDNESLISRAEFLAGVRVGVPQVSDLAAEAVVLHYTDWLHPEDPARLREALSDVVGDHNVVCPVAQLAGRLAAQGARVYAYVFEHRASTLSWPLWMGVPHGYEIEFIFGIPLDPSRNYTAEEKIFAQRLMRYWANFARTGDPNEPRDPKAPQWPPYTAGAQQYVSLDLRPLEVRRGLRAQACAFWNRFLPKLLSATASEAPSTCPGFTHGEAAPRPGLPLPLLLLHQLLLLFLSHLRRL

## O=P(Oc1ccccc1)(Oc1ccccc1)Oc1ccc(OP(=O)(Oc2ccccc2)Oc2ccccc2)c(-c2ccccc2)c1 [Compound 11, phenylhydroquinone bis(diphenylphosphate)]
[1]
  IC50: 35.5 µM
[2]
  IC50: 25.8 µM

## CC(C)(C)c1cc(OP(=O)(Oc2ccccc2)Oc2ccccc2)ccc1OP(=O)(Oc1ccccc1)Oc1ccccc1 [Compound 12, tert-butyl hydroquinone bis(diphenylphosphate)]
[1]
  IC50: 23.8 µM
[2]
  IC50: 104 µM

## CC(C)(C)c1cc(OP(=O)(Oc2ccccc2)Oc2ccccc2)c(C(C)(C)C)cc1OP(=O)(Oc1ccccc1)Oc1ccccc1 [Compound 13, 2,5-di-tert-butyl hydroquinone bis(diphenylphosphate)]
[1]
  IC50: 27.1 µM
[2]
  IC50: 111 µM

## O=P(Oc1ccccc1)(Oc1ccccc1)Oc1ccc(OP(=O)(Oc2ccccc2)Oc2ccccc2)c2ccccc12 [Compound 14, 1,4-dihydroxynaphthalene bis(diphenylphosphate)]
[1]
  IC50: 27.4 µM
[2]
  IC50: 127 µM

## O=P(Oc1ccccc1)(Oc1ccccc1)Oc1ccc2ccc(OP(=O)(Oc3ccccc3)Oc3ccccc3)cc2c1 [Compound 15, 2,7-dihydroxynaphthalene bis(diphenylphosphate)]
[1]
  IC50: 28.8 µM
[2]
  IC50: 90.1 µM

## O=C(c1ccc(OP(=O)(Oc2ccccc2)Oc2ccccc2)cc1)c1ccc(OP(=O)(Oc2ccccc2)Oc2ccccc2)cc1 [Compound 16, 4,4′-dihydroxybenzophenone bis(diphenylphosphate)]
[1]
  IC50: 39.8 µM
[2]
  IC50: 164 µM

## O=P(Oc1ccccc1)(Oc1ccccc1)Oc1ccc(S(=O)(=O)c2ccc(OP(=O)(Oc3ccccc3)Oc3ccccc3)cc2)cc1 [Compound 17, bis(4-dihydroxyphenyl)sulfone bis(diphenylphosphate)]
[1]
  IC50: 30.2 µM
[2]
  IC50: 96.4 µM

## O=P(Oc1ccccc1)(Oc1ccccc1)Oc1ccc(C(c2ccc(OP(=O)(Oc3ccccc3)Oc3ccccc3)cc2)(C(F)(F)F)C(F)(F)F)cc1 [Compound 18]
[1]
  IC50: 34 µM
[2]
  IC50: 141 µM

## CC(c1ccccc1)(c1ccc(OP(=O)(Oc2ccccc2)Oc2ccccc2)cc1)c1ccc(OP(=O)(Oc2ccccc2)Oc2ccccc2)cc1 [Compound 19, 4,4′-(α-methylbenzylidene)bisphenol bis(diphenylphosphate)]
[1]
  IC50: 46 µM
[2]
  IC50: 147 µM

## O=P(Oc1ccccc1)(Oc1ccccc1)Oc1ccc(C2(c3ccc(OP(=O)(Oc4ccccc4)Oc4ccccc4)cc3)CCCCC2)cc1 [Compound 20, 1,1-bis-(4-hydroxyphenyl)cyclohexane bis(diphenylphosphate)]
[1]
  IC50: 35.5 µM
[2]
  IC50: 399 µM

## O=P(Oc1ccccc1)(Oc1ccccc1)Oc1ccc(C2(c3ccc(OP(=O)(Oc4ccccc4)Oc4ccccc4)cc3)c3ccccc3-c3ccccc32)cc1 [Compound 21, 9,9-bis(4-hydroxyphenyl)fluorene bis(diphenylphosphate)]
[1]
  IC50: 29.6 µM
[2]
  IC50: 106 µM

## CC(c1ccc(OP(=O)(Oc2ccccc2)Oc2ccccc2)cc1)(c1ccc(OP(=O)(Oc2ccccc2)Oc2ccccc2)cc1)c1ccc(OP(=O)(Oc2ccccc2)Oc2ccccc2)cc1 [Compound 23, 1,1,1-Tris(4-hydroxyphenyl)ethane tris(diphenylphosphate)]
[1]
  IC50: 19.8 µM
[2]
  IC50: 70.9 µM

## CC(C)(C)c1ccc(OP(=O)(Oc2ccc(C(C)(C)C)cc2)Oc2ccc(C(C)(C)C)cc2)cc1 [Compound I2, Tri(p-tert-butylphenyl)phosphate, reference compound]
[2]
  inhibition on butyrylcholinesterase / lC50 for eqBuChE, in words: reduced inhibition

## O=P(Oc1ccccc1)(Oc1ccccc1)Oc1cc(OP(=O)(Oc2ccccc2)Oc2ccccc2)c2ccccc2c1 [X, 1,3-dihydroxynaphthalene bis(diphenylphosphate), reference compound]
[1]
  IC50: 26.4 µM
[2]
  IC50: 7.21 µM

## O=P(Oc1ccccc1)(Oc1ccccc1)Oc1ccc(OP(=O)(Oc2ccccc2)Oc2ccccc2)c(Cl)c1 [Y, 2-chlorohydroquinone bis(diphenylphosphate), reference compound]
[1]
  IC50: 41.1 µM
[2]
  IC50: 1 µM

## CC(=O)c1cc(OP(=O)(Oc2ccccc2)Oc2ccccc2)ccc1OP(=O)(Oc1ccccc1)Oc1ccccc1 [Z, (2,5-dihydroxy)1-acetophenone bis(diphenylphosphate), reference compound]
[1]
  IC50: 29.8 µM
[2]
  IC50: 0.114 µM

## dimer diol (C34-36) bis(diphenylphosphate) [Compound 22]
[1]; Table 1, n=3
  lC50 hAChE: 15.6 mq/L
[2]; Table 1, n=3
  lC50 eqBuChE: 88.3 mg/L
